According to article PMC4365380, “Synthesis and Biological Activity of Arylspiroborate Salts Derived from Caffeic Acid Phenethyl Ester” (International Journal of Medicinal Chemistry, 2015):

Biological target: T1, 5-lipoxygenase (5-LO) (Homo sapiens, UniProt P09917)
T1 construct: gene ALOX5
T1 sequence (P09917 1-674): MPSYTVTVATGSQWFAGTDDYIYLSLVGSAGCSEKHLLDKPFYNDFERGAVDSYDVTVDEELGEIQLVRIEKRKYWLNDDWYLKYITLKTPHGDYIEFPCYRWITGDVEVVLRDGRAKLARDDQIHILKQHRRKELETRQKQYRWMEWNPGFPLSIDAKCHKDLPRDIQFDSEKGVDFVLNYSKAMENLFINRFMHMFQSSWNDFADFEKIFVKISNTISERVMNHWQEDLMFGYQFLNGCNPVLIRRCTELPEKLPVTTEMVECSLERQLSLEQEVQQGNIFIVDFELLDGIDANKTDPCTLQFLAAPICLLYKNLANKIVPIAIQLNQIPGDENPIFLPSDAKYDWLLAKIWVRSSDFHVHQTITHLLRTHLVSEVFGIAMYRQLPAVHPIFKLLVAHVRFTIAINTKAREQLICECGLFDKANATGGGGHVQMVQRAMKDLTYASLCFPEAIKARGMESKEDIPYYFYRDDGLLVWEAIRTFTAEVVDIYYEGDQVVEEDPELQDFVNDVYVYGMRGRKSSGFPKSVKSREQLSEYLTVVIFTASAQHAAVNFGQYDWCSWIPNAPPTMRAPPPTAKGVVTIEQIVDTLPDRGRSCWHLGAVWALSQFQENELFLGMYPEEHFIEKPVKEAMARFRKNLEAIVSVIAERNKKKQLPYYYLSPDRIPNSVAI
T1 sequence (P20292 1-161 partner): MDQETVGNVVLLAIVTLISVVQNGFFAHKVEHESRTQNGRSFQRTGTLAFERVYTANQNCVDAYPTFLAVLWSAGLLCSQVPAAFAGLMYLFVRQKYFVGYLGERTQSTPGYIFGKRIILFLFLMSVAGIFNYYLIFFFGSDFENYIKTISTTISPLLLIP
Test: 5-LO product biosynthesis (RP-HPLC) in thapsigargin-stimulated human PMNL; also HEK293 cells expressing 5-LO and FLAP
Format: cell-based
Conditions: read-out: IC50 (μM) [SEM]^*

## O=C(/C=C/c1ccc(O)c(O)c1)OCCc1ccccc1 [compound 3, CAPE]
  IC50: 1.11 µM
